The target of this test is T1, SmcR (Vibrio vulnificus, UniProt Q9L8G8).
T1 construct: purified SmcR (dimer); SeMet-substituted SmcR for the crystals
Kind of test: ITC (two-sequential binding model; second Kd =[…]) and […] Å crystal structure of the soaked complex.

SMILES strings stand for the structures.

T1 sequence (Q9L8G8 entry or part of it): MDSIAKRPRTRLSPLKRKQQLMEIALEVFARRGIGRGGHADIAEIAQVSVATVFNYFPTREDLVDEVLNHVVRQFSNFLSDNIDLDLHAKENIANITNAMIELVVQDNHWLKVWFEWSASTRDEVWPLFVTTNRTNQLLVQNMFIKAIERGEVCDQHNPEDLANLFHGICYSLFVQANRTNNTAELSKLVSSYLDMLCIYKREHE

In the case of `O=S(=O)(c1ccc(Br)s1)n1cccn1` [377B6, 1-(5-bromothiophene-2-sulfonyl)-1H-pyrazole], the equilibrium dissociation constant (Kd) amounted to 470 nM.

For the origin of these results see publication PMC5790914, “QStatin, a Selective Inhibitor of Quorum Sensing in Vibrio Species” (mBio, 2018).
